Values after ≈ are worked out from the molar mass of the structure shown.
Legend:
[1] = test system: clinically isolated human cancer cells (lung adenocarcinoma, lung squamous cell carcinoma, osteosarcoma, ovarian carcinoma); test: Anti-tumor activity on clinically isolated human cancer cells, morphological changes (A-I Part 2); format: cell-based
V79/ADM [2] = test: Anti-cancer activity potentiating action, colony formation, V79/ADM resistant cells (A-III); format: cell-based, Chinese hamster; details: V79/ADM; for IC50: Cricetulus griseus
Procedure: (§1) The anti-cancer activity potentiating action of the malate of formula (I) was examined using Chinese hamster cells (sensitive cell line V79/S and ADM-resistant cell line V79/ADM), human hepatoma cells (sensitive cell line PLC/S and colchicin-resistant cell line PLC/Col) and mouse leukemia cells (sensitive cell line L5178Y/S) and aclarubicin-resistant cell line L5178Y/ACR).
(§2) Of these tumor cells, the sensitive cells (400 cells) and the resistant cells (600 cells) were each incubated in 10 ml of Eagle's MEM medium containing 10% bovine serum for 24 hours, and then each of the test drugs indicated in Table 6 was added. Thereafter, the incubation was carried out for 9 days. The concentration (IC50 : micrograms/ml) of the test drug required to inhibit 50% of the colony formation (proliferation) of the tumor cells was calculated.
(§3) (A) Chinese hamster V79 cells
(§4) As anti-cancer agents, there were used adriamycin (ADM), aclarubicin (ACR), actinomycin D (ACD), 5-fluorouracil (5-FU), cytarabin (Ara-C), cisplatin (CDDP), methotrexate (MTX), mitomycin C (MMC), nimustine (ACNU), mitoxantrone, etoposide ([…]), vincristine (VCR), bleomycin (BLM) and peplomycin (PEP). For the sensitive cells, the anti-cancer agents were used in combination with 10 micrograms/ml of the malate of formula (I), and for the resistant cells, the anti-cancer agents were used in combination with the malate of formula (I) 3 micrograms/ml, 5 micrograms/ml, and 10 micrograms/ ml.

V79/S [3] = test: Anti-cancer activity potentiating action, colony formation, V79/S parent cells (A-III); format: cell-based, Chinese hamster; details: V79/S; for IC50: Cricetulus griseus
Procedure: as §1, §2, §3, §4

V79/ADM [4] = test: Colony formation (proliferation) inhibition, ADM-resistant Chinese hamster cells (A-I Part 1); format: cell-based; details: Cricetulus griseus, 216 h
Procedure: (§5) Sensitive cell line V79/S and ADM-resistant cell line V79/ADM of the Chinese hamster were used, and sensitive cell line PLC/S and cholchicin-resistant cell line PLC/Col, as human hepatoma cells.
(§6) The sensitive cell lines (400 cells) or the resistant cell lines (600 cells) were each incubated for 24 hours in 10 ml of Eagle's MEM medium containing 10% bovine serum. Each of the drugs indicated in Table 1 below was dissolved in ethanol, and 50 microliters of the resulting solution was added to the medium. The incubation was further carried out for 9 days. The concentration of the drug which inhibits 50% of the colony formation (proliferation) of the tumor cells was calculated.
(§7) V79/S and V79/ADM were tested by using all of the drugs described above, but PLC/S and PLC/Col were tested by using only the malate of formula (I), adriamycin and peplomycin.
(§8) The concentrations (micrograms/ml) required to inhibit 50% of the proliferation of the tumor cells, expressed by IC50, are shown in Table 1.

V79/S [5] = test: Colony formation (proliferation) inhibition, sensitive Chinese hamster cells (A-I Part 1); format: cell-based; details: Cricetulus griseus, 216 h
Procedure: as §5, §6, §7, §8

[6] = alone, Table 6, read-out: IC50, anti-cancer agent alone
[7] = with compound (I) 5 μg/ml, read-out: IC50 in combination with compound (I)
[8] = with compound (I) 10 μg/ml, read-out: IC50 in combination with compound (I)
[9] = with compound (I) 3 μg/ml, read-out: IC50 in combination with compound (I)

## O=c1[nH]cc(F)c(=O)[nH]1 [Example 5-FU, 5-fluorouracil]
[1]; 10 μg/ml
  Efficacy ratio (rated significant by Fisher's test): 1/8
V79/ADM [2]; [6]
  IC50: 7.2 µM
V79/ADM [2]; [7]
  IC50: 0.62 µM
V79/ADM [2]; with compound (I) 5 μg/ml
  Potentiation activity: 11.6 times
V79/S [3]; [6]
  IC50: 9.7 µM
V79/S [3]; [8]
  IC50: 2.1 µM
V79/S [3]; with compound (I) 10 μg/ml
  Potentiation activity: 4.6 times

## N[C@@H](Cc1ccc(N(CCCl)CCCl)cc1)C(=O)O [MPL, melphalan]
[1]; 0.5 μg/ml
  Efficacy ratio (rated significant by Fisher's test): 1/8

## CN(Cc1cnc2nc(N)nc(N)c2n1)c1ccc(C(=O)N[C@@H](CCC(=O)O)C(=O)O)cc1 [MTX, methotrexate]
[1]; 3.0 μg/ml
  Efficacy ratio (rated significant by Fisher's test): 1/8
V79/ADM [4]
  IC50: 0.0078 µg/mL (≈ 0.0172 µM)
V79/ADM [2]; [6]
  IC50: 0.0078 µg/mL
V79/ADM [2]; [7]
  IC50: < 0.0025 µg/mL
V79/ADM [2]; with compound (I) 5 μg/ml
  Potentiation activity: > 3.12 times
V79/S [3]; [6]
  IC50: 0.014 µg/mL
V79/S [3]; [8]
  IC50: 0.017 µg/mL
V79/S [3]; with compound (I) 10 μg/ml
  Potentiation activity: 0.8 times
V79/S [5]
  IC50: 0.017 µg/mL (≈ 0.0374 µM)

## O=C1c2c(O)ccc(O)c2C(=O)c2c(NCCNCCO)ccc(NCCNCCO)c21 [Mitoxantrone, mitoxantrone]
V79/ADM [4]; V79/ADM, 9 days, Table 1, read-out: IC50
  IC50: 0.36 µg/mL (≈ 0.81 µM)
V79/ADM [2]; [6]
  IC50: 0.36 µg/mL
V79/ADM [2]; [9]
  IC50: 0.074 µg/mL
V79/ADM [2]; with compound (I) 3 μg/ml
  Potentiation activity: 4.9 times
V79/S [3]; [6]
  IC50: 0.019 µg/mL
V79/S [3]; [8]
  IC50: 0.0081 µg/mL
V79/S [3]; with compound (I) 10 μg/ml
  Potentiation activity: 2.3 times
V79/S [5]; V79/S, 9 days, Table 1, read-out: IC50
  IC50: 0.019 µg/mL (≈ 0.0427 µM)

## CC[C@]1(O)C[C@H]2CN(CCc3c([nH]c4ccccc34)[C@@](C(=O)OC)(c3cc4c(cc3OC)N(C=O)[C@H]3[C@@](O)(C(=O)OC)[C@H](OC(C)=O)[C@]5(CC)C=CCN6CC[C@]43[C@@H]65)C2)C1 [VCR, vincristine]
[1]; 0.1 μg/ml
  Efficacy ratio (rated significant by Fisher's test): 2/8
V79/ADM [2]; [6]
  IC50: 0.73 µg/mL
V79/ADM [2]; [9]
  IC50: 0.0351 µg/mL
V79/ADM [2]; with compound (I) 3 μg/ml
  Potentiation activity: 20.8 times
V79/S [3]; [6]
  IC50: 0.0271 µg/mL
V79/S [3]; [8]
  IC50: 0.00325 µg/mL
V79/S [3]; with compound (I) 10 μg/ml
  Potentiation activity: 8.3 times

## CC[C@]1(O)C[C@@H]2CN(CCc3c([nH]c4ccccc34)[C@@](C(=O)OC)(c3cc4c(cc3OC)N(C)[C@H]3[C@@](O)(C(N)=O)[C@H](O)[C@]5(CC)C=CCN6CC[C@]43[C@@H]65)C2)C1 [VDS, vindesine]
[1]; 0.5 μg/ml
  Efficacy ratio (rated significant by Fisher's test): 0/8

## CC[C@]1(O)C[C@@H]2CN(CCc3c([nH]c4ccccc34)[C@@](C(=O)OC)(c3cc4c(cc3OC)N(C)[C@H]3[C@@](O)(C(=O)OC)[C@H](OC(C)=O)[C@]5(CC)C=CCN6CC[C@]43[C@@H]65)C2)C1 [VLB, vinblastine]
[1]; 0.1 μg/ml
  Efficacy ratio (rated significant by Fisher's test): 3/8

## bleomycin [BLM]
[1]; 1.0 μg/ml
  Efficacy ratio (rated significant by Fisher's test): 2/8
V79/ADM [2]; alone, Table 6
  IC50, anti-cancer agent alone: 0.56 µg/mL
V79/ADM [2]; with compound (I) 3 μg/ml
  IC50 in combination with compound (I): 0.0385 µg/mL
  Potentiation activity: 14.5 times
V79/S [3]; alone, Table 6
  IC50, anti-cancer agent alone: 2.1 µg/mL
V79/S [3]; with compound (I) 10 μg/ml
  IC50 in combination with compound (I): 0.01 µg/mL
  Potentiation activity: 202 times
